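Protocol summary: plate cells (96-well), add compound at 5 concentrations, incubate 48 h, interpolate endpoints linearly. GI50 is the concentration that inhibits growth by half.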 Activity calls are given as the source filed them. Cut-off read from the data, not from the text of the source: active = GI50 up to about 1.1 µM and inactive = higher. Where a SMILES comes first, the peptide text is derived from it. [ ]: non-standard residue; d: D form. The star is where a group is joined. Hyp = O=C(O)[CH]1C[CH](O)CN1; Cbz = O=C(OCc1ccccc1)*
What was measured:
Experiment in all cases: DTP human tumour cell line panel, 48 h
K562 = tested on: K562
786-0 = tested on: 786-0
HCT-15 = tested on: HCT-15
ACHN = tested on: ACHN
OVCAR-8 = tested on: OVCAR-8
SR = tested on: SR
NCI-H226 = tested on: NCI-H226
UACC-257 = tested on: UACC-257
HCT-116 = tested on: HCT-116
MCF7 = tested on: MCF7
SF-295 = tested on: SF-295
A549 = tested on: A549
MDA-MB-435 = tested on: MDA-MB-435
MOLT-4 = tested on: MOLT-4
A498 = tested on: A498
HOP-62 = tested on: HOP-62
TK-10 = tested on: TK-10
NCI-H522 = tested on: NCI-H522
HCC 2998 = tested on: HCC 2998
CAKI-1 = tested on: CAKI-1

Compound	GI50 (K562)	GI50 (786-0)	GI50 (HCT-15)	GI50 (ACHN)	GI50 (OVCAR-8)	GI50 (SR)	GI50 (NCI-H226)	GI50 (UACC-257)	GI50 (HCT-116)	GI50 (MCF7)	GI50 (SF-295)	GI50 (A549)	GI50 (MDA-MB-435)	GI50 (MOLT-4)	GI50 (A498)	GI50 (HOP-62)	GI50 (TK-10)	GI50 (NCI-H522)	GI50 (HCC 2998)	GI50 (CAKI-1)
Cc1nn(C(=O)c2ccncc2)c2c1C(c1ccc([N+](=O)[O-])cc1)SC(=N)N2 (stereo unspecified)	> 100 µM (inactive)	> 100 µM (inactive)	> 100 µM	> 100 µM (inactive)	> 100 µM (inactive)	> 100 µM (inactive)	> 100 µM (inactive)	> 100 µM (inactive)	> 100 µM (inactive)	> 100 µM (inactive)	> 100 µM (inactive)	> 100 µM (inactive)	> 100 µM (inactive)	> 100 µM (inactive)	> 100 µM (inactive)	> 100 µM (inactive)	> 100 µM (inactive)	–	–	–
NC(=O)CNC(=O)C1CC(O)CN1C(=O)C1CCCN1C(=O)OCc1ccccc1 (stereo not drawn) (Cbz-Pro-[Hyp]-Gly-NH2; configuration not given here)	> 100 µM (inactive)	> 100 µM (inactive)	> 100 µM	> 100 µM (inactive)	> 100 µM (inactive)	> 100 µM (inactive)	> 100 µM (inactive)	> 100 µM (inactive)	> 100 µM (inactive)	> 100 µM (inactive)	> 100 µM (inactive)	> 100 µM (inactive)	> 100 µM (inactive)	> 100 µM (inactive)	> 100 µM (inactive)	> 100 µM (inactive)	> 100 µM (inactive)	> 100 µM (inactive)	> 100 µM (inactive)	–
Nc1c(C(=O)O)c2ccc([N+](=O)[O-])cc2c(=O)n1-c1nc2ccccc2s1	> 100 µM (inactive)	> 100 µM (inactive)	> 100 µM	> 100 µM (inactive)	> 100 µM (inactive)	> 100 µM (inactive)	> 100 µM (inactive)	–	> 100 µM (inactive)	> 100 µM (inactive)	> 100 µM (inactive)	> 100 µM (inactive)	> 100 µM (inactive)	> 100 µM (inactive)	> 100 µM (inactive)	> 100 µM (inactive)	–	> 100 µM (inactive)	> 100 µM (inactive)	> 100 µM (inactive)
CCCCCCCCCCCCCC/C(C(=O)O)=C(\C)C(=O)O	> 100 µM (inactive)	> 100 µM (inactive)	> 100 µM	> 100 µM (inactive)	> 100 µM (inactive)	41.5 µM (inactive)	> 100 µM (inactive)	> 100 µM (inactive)	> 100 µM (inactive)	> 100 µM (inactive)	> 100 µM (inactive)	> 100 µM (inactive)	> 100 µM (inactive)	> 100 µM (inactive)	> 100 µM (inactive)	> 100 µM (inactive)	> 100 µM (inactive)	> 100 µM (inactive)	> 100 µM (inactive)	–
CC(C)(C)[Si](C)(C)OCC1CCC(n2cnc3c(=O)[nH]cnc32)O1 (stereo unspecified)	85.7 µM (inactive)	> 100 µM (inactive)	> 100 µM	> 100 µM (inactive)	94.4 µM (inactive)	35.3 µM (inactive)	77.6 µM (inactive)	> 100 µM (inactive)	> 100 µM (inactive)	> 100 µM (inactive)	> 100 µM (inactive)	> 100 µM (inactive)	> 100 µM (inactive)	30.2 µM (inactive)	–	> 100 µM (inactive)	> 100 µM (inactive)	> 100 µM (inactive)	> 100 µM (inactive)	> 100 µM (inactive)
COc1ccc(/C=C2\N=C(SC)N(CN3CCCCC3)C2=O)cc1	> 100 µM (inactive)	> 100 µM (inactive)	> 100 µM	> 100 µM (inactive)	> 100 µM (inactive)	> 100 µM (inactive)	> 100 µM (inactive)	–	> 100 µM (inactive)	> 100 µM (inactive)	> 100 µM (inactive)	> 100 µM (inactive)	> 100 µM (inactive)	> 100 µM (inactive)	42.4 µM (inactive)	58.7 µM (inactive)	> 100 µM (inactive)	> 100 µM (inactive)	–	–
COCc1nc(C#N)c(N)o1	> 10 µM (inactive)	> 10 µM (inactive)	> 10 µM	> 10 µM (inactive)	> 10 µM (inactive)	> 10 µM (inactive)	> 10 µM (inactive)	> 10 µM (inactive)	> 10 µM (inactive)	> 10 µM (inactive)	> 10 µM (inactive)	> 10 µM (inactive)	> 10 µM (inactive)	> 10 µM (inactive)	–	> 10 µM (inactive)	> 10 µM (inactive)	> 10 µM (inactive)	> 10 µM (inactive)	> 10 µM (inactive)
CCOC1CC(C)N(C(=O)c2ccccc2)O1 (stereo unspecified)	> 100 µM (inactive)	> 100 µM (inactive)	–	> 100 µM (inactive)	> 100 µM (inactive)	> 100 µM (inactive)	> 100 µM (inactive)	–	> 100 µM (inactive)	> 100 µM (inactive)	> 100 µM (inactive)	> 100 µM (inactive)	> 100 µM (inactive)	> 100 µM (inactive)	> 100 µM (inactive)	> 100 µM (inactive)	> 100 µM (inactive)	–	> 100 µM (inactive)	–
N=C(N)NS(=O)(=O)c1ccc(NNC(=O)c2cccc3c(O)c4ccccc4nc23)cc1	24 µM (inactive)	38.4 µM (inactive)	23 µM	21.1 µM (inactive)	26.1 µM (inactive)	35.6 µM (inactive)	25.5 µM (inactive)	31.6 µM (inactive)	24.5 µM (inactive)	16.3 µM (inactive)	35.7 µM (inactive)	38.7 µM (inactive)	25.5 µM (inactive)	30.2 µM (inactive)	–	22 µM (inactive)	44.8 µM (inactive)	21.6 µM (inactive)	18.1 µM (inactive)	34.6 µM (inactive)
CCCCn1c2c(c3ccccc3c1=O)C(=O)c1ccccc1-2	> 100 µM (inactive)	25.3 µM (inactive)	> 100 µM	–	> 100 µM (inactive)	1.82 µM (inactive)	> 100 µM (inactive)	> 100 µM (inactive)	> 100 µM (inactive)	15 µM (inactive)	37.8 µM (inactive)	25 µM (inactive)	> 100 µM (inactive)	–	> 100 µM (inactive)	19.9 µM (inactive)	62.4 µM (inactive)	37.8 µM (inactive)	–	25.9 µM (inactive)
COc1cc(S(=O)(=O)Nc2ccc(-c3csc(N4C(=O)C(C)SC4c4cccs4)n3)cc2)ccc1Cl (stereo unspecified)	28.4 µM (inactive)	34.6 µM (inactive)	37 µM	> 100 µM (inactive)	32.4 µM (inactive)	33.8 µM (inactive)	6.28 µM (inactive)	–	35.1 µM (inactive)	> 100 µM (inactive)	> 100 µM (inactive)	–	30 µM (inactive)	16 µM (inactive)	> 100 µM (inactive)	0.558 µM (active)	–	20.6 µM (inactive)	–	50.5 µM (inactive)

Reference: ChEMBL document CHEMBL1201862, “PubChem BioAssay data set” (2004)
